Experimental data reported in US7872153B2, “Salt of aliskiren with sulfuric acid” (Novartis AG, priority 2006, dated 2011).

Legend:
[1] = hygroscopicity of the drug substance (statement); format: physicochemical; conditions: background statement
[2] = dynamic vapour sorption (DVS): water absorption or loss as a function of relative humidity; format: physicochemical; conditions: for change in mass in % (sorption) / change in mass in % (desorption): 25° C., 9.5 mg sample, 4 hours; for change in mass in % (sorption): cycle 0-95%; for change in mass in % (desorption): cycle 40-0
Text: A clear characterisation of this property is achieved by means of isothermal measurements over predetermined time intervals and predetermined relative humidity using dynamic vapour sorption (DVS from the company Surface Measurement Systems LTD, Marlow, Buckinghamshire, UK). […] The following cycles of changes in relative humidity are shown: 40-0; 0-95% relative humidity: The measurement error of this sorption method based on thermogravimetry is about 0.1%.

hygroscopicity [1]	water absorption or loss ([2]; above 40% relative humidity)	change in mass in % (sorption) ([2]; relative humidity 0%)	change in mass in % (desorption) ([2]; relative humidity 0%)	change in mass in % (sorption) ([2]; relative humidity 10%)	change in mass in % (desorption) ([2]; relative humidity 10%)	change in mass in % (sorption) ([2]; relative humidity 20%)	change in mass in % (desorption) ([2]; relative humidity 20%)	change in mass in % (sorption) ([2]; relative humidity 30%)	change in mass in % (desorption) ([2]; relative humidity 30%)	change in mass in % (sorption) ([2]; relative humidity 40%)	change in mass in % (desorption) ([2]; relative humidity 40%)	change in mass in % (sorption) ([2]; relative humidity 50%)	change in mass in % (sorption) ([2]; relative humidity 60%)	change in mass in % (sorption) ([2]; relative humidity 70%)	change in mass in % (sorption) ([2]; relative humidity 80%)	change in mass in % (sorption) ([2]; relative humidity 90%)	change in mass in % (sorption) ([2]; relative humidity 95%)	Compound	water uptake compared with the hemifumarate ([2]; below 40% relative humidity)
highly hygroscopic	–	–	–	–	–	–	–	–	–	–	–	–	–	–	–	–	–	COCCCOc1cc(C[C@@H](C[C@H](N)[C@@H](O)C[C@H](C(=O)NCC(C)(C)C(N)=O)C(C)C)C(C)C)ccc1OC [aliskiren, 2(S),4(S),5(S),7(S)—N-(3-amino-2,2-dimethyl-3-oxopropyl)-2,7-di(1-methylethyl)-4-hydroxy-5-amino-8-[4-methoxy-3-(3-methoxy-propoxy)phenyl]-octanamide]	–
–	significant water absorption or loss	0.00%	0.00%	0.46%	0.88%	0.84%	1.25%	1.31%	1.67%	1.98%	2.20%	3.39%	7.07%	8.88%	13.43%	25.83%	40.62%	COCCCOc1cc(C[C@@H](C[C@H](N)[C@@H](O)C[C@H](C(=O)NCC(C)(C)C(N)=O)C(C)C)C(C)C)ccc1OC.O=S(=O)(O)O [hydrogen sulfate salt of aliskiren]	does not take up as much water as the hemifumarate
